In data set [1] the test system is Mus musculus. Nature of the data set: Survival in BALB/c mouse infected with Bacillus anthracis Ames at 40 mg/kg every 6 hrs for 14 days. Format: functional, organism-based. Also on record: dose 40 mg/kg.
Data set [2] in a line: Trough level in BALB/c mouse at 100 mg/kg, ip after 6 hrs. Format: ADME, organism-based. Conditions: in vivo.
Data set [3] can be described thus: AUC (0-6h) in BALB/c mouse at 25 mg/kg, ip. The format is ADME, organism-based. The note with it: plasma.
Data set [4] can be described thus: AUC (0-6h) in BALB/c mouse at 50 mg/kg, ip. The format is ADME, organism-based. The note with it: plasma.
Data set [5] can be described thus: Cmax in BALB/c mouse at 50 mg/kg, ip. Format: ADME, organism-based. The note with it: in vivo.
Data set [6] can be described thus: Cmax in BALB/c mouse at 25 mg/kg, ip. Format: ADME, organism-based. Conditions: in vivo.
Data set [7] in a line: Trough level in BALB/c mouse at 50 mg/kg, ip after 6 hrs. Format: ADME, organism-based. Conditions: in vivo.
The subject of another data set is Bacillus anthracis. The data set can be described thus: Antimicrobial activity against Bacillus anthracis Ames. The format is functional.
A short description of data set [8]: Cmax in BALB/c mouse at 100 mg/kg, ip. The format is ADME, organism-based. The note with it: in vivo.
Data set [9] in a line: AUC (0-6h) in BALB/c mouse at 100 mg/kg, ip. Conditions: plasma. Format: ADME, organism-based.
Data set [10] in a line: Trough level in BALB/c mouse at 25 mg/kg, ip after 6 hrs. The format is ADME, organism-based. The note with it: in vivo.
Data set [11] has as its system Mus musculus. Nature of the data set: Survival of Bacillus anthracis Ames infected BALB/c mouse at 30 mg/kg, ip every 12 hrs for 14 days administered 48 hrs after infection. The format is functional.
For data set [12], the system named is Mus musculus. Nature of the data set: Survival in BALB/c mouse infected with Bacillus anthracis Ames at 30 mg/kg, ip every 12 hrs for 14 days. The format is functional, organism-based. Also on record: dose 30 mg/kg.
In data set [13] the test system is Mus musculus. Nature of the data set: Survival of Bacillus anthracis Ames infected BALB/c mouse at 30 mg/kg, ip every 12 hrs for 14 days administered 36 hrs after infection. Format: functional.

By AUC(0-t) is commonly meant exposure summed from dosing to a finite time, without extrapolation to infinity. Read a high AUC(0-t) as high exposure. What is called Cmax is the highest concentration seen after dosing. A word on the MIC: it is the least concentration at which growth counts as inhibited.

Converted amounts (≈) assume the structure as drawn. The source made the active and inactive calls. No cut-off for these calls is given here.

`C[C@H]1c2cccc(O)c2C(=O)C2=C(O)[C@]3(O)C(=O)C(C(N)=O)=C(O)[C@@H](N(C)C)[C@@H]3[C@@H](O)[C@@H]21.O` [DOXYCYCLINE]: the outcome in the data set with Mus musculus [1] was Active. For the same molecule, the concentration at 6 h in data set [2] is 6000 ng/mL; in data set [7], 1670 ng/mL; in [10], 1330 ng/mL. The AUC(0-t) at 6 h in [3] is 13700 ng·h/mL; in [4], 23400 ng·h/mL; in [9], 57200 ng·h/mL. The results for the Cmax in data set [5], in data set [6] and in data set [8] were 6700 ng/mL, 4000 ng/mL and 12000 ng/mL, respectively. The minimal inhibitory concentration (MIC) in the data set with Bacillus anthracis was found to be 0.03 µg/mL.
For `O=C(O)c1cn(C2CC2)c2cc(N3CCNCC3)c(F)cc2c1=O` [CIPROFLOXACIN], the results for the concentration at 6 h in data set [2], in data set [7] and in [10] were 1670 ng/mL, 1830 ng/mL and 1000 ng/mL, respectively. Further, the survival at 30 mg/kg in the data set with Mus musculus [11] and in the data set with Mus musculus [13] was 80% each time. In addition, the outcome in the data set on Mus musculus [12] was Active. In addition, the AUC(0-t) at 6 h in data set [3] is 6600 ng·h/mL; in data set [4], 14100 ng·h/mL; in data set [9], 37700 ng·h/mL. Also, the Cmax in data set [5] came to 10700 ng/mL; in [6] it was 6600 ng/mL; in data set [8], 20000 ng/mL. Inhibition of growth in the data set on Bacillus anthracis (MIC) required 0.25 µg/mL (≈ 0.754 µM).

Source of the values: ChEMBL document CHEMBL1147119 (2007).
